From a melting point compilation (Tetko et al.; mined from patent text by program, amines drawn as free bases though some values may be those of a salt)

Row | melting point | SMILES
1 | 152 to 153 °C | CCOC(=O)c1ccc(Oc2ccccc2C(=O)O)cc1
2 | 146 to 148 °C | OC1(c2cccc(Cl)c2)CCN(CCCc2nnc3n2CCCCC3)CC1
3 | 81 to 82 °C | COc1c(Br)ccc2oc(C=O)c(C)c12
4 | 129 to 130 °C | Cc1cc(C(=O)CCl)c(N)cc1Cl
5 | 186 to 187 °C | Cc1cc(C)n(-c2nc(Nc3ccc(Cl)cc3)cc(N3CCOCC3)n2)n1
6 | 240 to 242 °C | CCCN(CCC)c1nc2ccccc2n2cnnc12
7 | 156 to 158 °C | CC(CCC(F)C(C)(C)O)C1CCC2C3CC=C4CC(O)CC(O)C4(C)C3CCC12C (stereo unspecified)
8 | 239 °C | CC(C)(C)OC(=O)N1CC=C(C#Cc2ccc3c(c2)NC(=O)CC(c2cccc(C#N)c2)=N3)CC1
9 | 149 to 151 °C | CC(=O)NCc1ccc(-c2ccc([N+](=O)[O-])cc2)o1
10 | 93.1 to 94.4 °C | CCOc1ccc(-c2nc(CCC(=O)c3nccs3)cs2)cc1OCC
11 | 168 to 170 °C | CC(=O)NC[C@H]1CN(c2cc(F)c(N3CCC(n4ncn(C)c4=S)CC3)c(F)c2)C(=O)O1
12 | 262 to 269 °C | CC12C=CC(=O)CC1CCC1C2CCC2(C)C(C(=O)NC3(C#N)CCCC3)CCC12 (stereo unspecified)
13 | 172 to 175 °C | CCc1nc2c(N)nc3ccccc3c2n1CCCCS(=O)(=O)c1ncccn1
14 | 244 to 246 °C | O=C1CC(CN2C(=O)c3ccccc3C2=O)=Nc2ccccc2N1
15 | 135 to 136 °C | CCCCC(=O)c1cc2n(c1)CCc1ccccc1C2=O
16 | 134 to 136 °C | CC(CSC(=O)C(C)(C)C)C(=O)N1C(C(=O)O)CC2CCCCC21 (stereo unspecified)
17 | 214 to 215 °C | COc1ccnc(-c2nc(=O)c3ccccc3s2)c1
18 | 155 to 158 °C | COc1ccc2cccc(N3CCN(CCCCOc4ccc5c(n4)NC(=O)NCC5)CC3)c2c1
19 | 236 °C | CNC(=O)c1ncc2[nH]c3cccc(Oc4ccc(Cl)cc4)c3c2c1COC
20 | 154 to 157 °C | Oc1ccccc1C=Nc1ccc(O)c2ccccc12
21 | 148 to 150 °C | NC(=O)N1CCN(c2nn(-c3ccccc3F)c3ccccc23)CC1
22 | 198 °C | O=C(CBr)Nc1coc2ccccc2c1=O
23 | 221 °C | COC(=O)C1=C(C)Nc2nc(N3CCOCC3)nc(N3CCOCC3)c2C1c1ccccc1C#N (stereo unspecified)
24 | 144 °C | CCOC(=O)c1c(C)csc1N/C=C(\C#N)C(=O)OC(C)(C)C
25 | 161 to 163 °C | NC(=O)C1CCN(c2c(Cl)cncc2Cl)C1 (stereo unspecified)

Row | melting point | SMILES
26 | 103 to 107 °C | CCc1nc2c(N3CCOCC3)ncn(CC)c-2n1
27 | 196 to 197 °C | CC(=O)Nc1ccc(N2CCN(Cc3ncc(-c4ccccc4)o3)CC2)cc1
28 | 165 to 167 °C | CCn1nnc2c(sc3nc(C)ccc32)c1=O
29 | 91.3 to 93.6 °C | OCCCc1ccc(OCC2CCCO2)cc1Oc1ncc(C(F)(F)F)cc1Cl (stereo unspecified)
30 | 204 to 205 °C | NC(=O)c1ccc(Nc2nc(N)nc(Cc3c(Cl)ccc4[nH]ccc34)n2)cc1
31 | 91 to 93 °C | COc1ccnc(C(=O)Nc2ccc(Oc3ccc(C(F)(F)F)cc3)cc2)c1O
32 | 91.5 to 93.5 °C | O=C1c2c(-c3ccccc3)noc2CCC1CCCN1CCCCC1 (stereo unspecified)
33 | 183 to 185 °C | O=C1N(C(c2ccccc2)c2ccccc2)c2ccccc2C12COc1cc3c(cc12)OCCO3 (stereo unspecified)
34 | 65 to 66 °C | CC(=O)NCCc1cn(S(=O)(=O)c2ccc(C)cc2)c2ccc(OCCN3CCCCC3)cc12
35 | 130 °C | Cc1cn(C(C)(C)C(=O)N(C)C)nc1-c1cc(Cl)ccc1Cl
36 | 160 to 170 °C | CCOC(=O)c1cc(-c2ccc(OCc3ccccc3)cc2)n[nH]1
37 | 179 °C | CC(C)CCC1(C(F)(F)F)NC(=O)Nc2ccc(F)cc21 (racemic)
38 | 94 to 95 °C | CCn1c2ccc(C(=O)CCCCCl)cc2c2cc(C(=O)CCCCCl)ccc21
39 | 110 to 113 °C | C[C@H](NC(=O)CC(Br)C(=O)c1ccc(Br)cc1)C(=O)O (stereo partly specified)
40 | 307 to 309 °C | O=c1[nH]c(-c2ccc(CCN3CCN(c4cccc5ccccc45)CC3)cc2)cs1
41 | 245 to 247 °C | COc1cc2c3c(n(Cc4ccccc4)c2cc1OC)CCCC3C(=O)N1CCN(c2ccccc2)CC1 (stereo unspecified)
42 | 113 to 114 °C | COC(=O)c1c(-c2ccc(F)cc2)ccc2ccccc12
43 | 76 to 77 °C | O=C(CBr)CCc1ccc(I)cc1
44 | 100 °C | O=C(O)CCCCCn1nnnc1S
45 | 136 °C | CCN(C(=O)n1nnc2cc(C)c(C)cc21)c1ccccc1
46 | 203 to 205 °C | c1ncn(-c2cc3cc[nH]c3cn2)n1
47 | 52.5 to 54 °C | CC(C)C(=Nc1ccc([N+](=O)[O-])c(C(F)(F)F)c1)N(C)c1ccccc1
48 | 90.5 to 91.8 °C | CC(C)(C)C(=O)Oc1ccc(OC(=O)C(C)(C)C)c(C(=O)OCc2ccccc2)c1
49 | 145 to 146 °C | O=C(Nc1ccccc1O)c1cccnc1Cl
50 | 255 °C | CN1CCN(C(=O)OC2C3=C(SCCS3)C(=O)N2c2ccc3cccnc3n2)CC1 (stereo unspecified)

Row | melting point | SMILES
51 | 140 to 142 °C | CS(=O)(=O)O[C@H](COC(=O)CCl)[C@H](NC(=O)OCc1ccccc1)C(N)=O
52 | 293 to 295 °C | Nc1ncc(-c2cc(Cl)c([N+](=O)[O-])c(Cl)c2Cl)c(N)n1
53 | 180 °C | COC(=O)c1ccc2oc(-c3ccc(C(F)(F)F)cc3)cc2c1
54 | 214 to 217 °C | Cc1cc(C)c2c(c1)OS(=O)(=O)C(=Cc1ccc(N(C)C)cc1)C2=O
55 | 112 to 113 °C | CNC(=C[N+](=O)[O-])NCCSCc1ccccn1
56 | 156 to 157 °C | CCNCC(=O)Nc1cc(NS(C)(=O)=O)c(Oc2ccccc2)cc1[N+](=O)[O-]
57 | 285 to 288 °C | Cn1cc(C(=O)O)c(=O)c2cc3cc(F)c(N4CCN(O)CC4)c(F)c3nc21
58 | 266 to 267 °C | COc1ccc2c(=O)[nH]c(-c3ccc(OCCO)c(-c4ccc(S(C)=O)cc4)n3)nc2c1 (stereo unspecified)
59 | 193 to 196 °C | CCC(=O)Nc1cc(C2=NNC(=O)CC2C)ccc1N1CCOCC1 (stereo unspecified)
60 | 146 to 149 °C | N#Cc1cc(=O)cc(-c2ccccc2)o1
61 | 131 to 133 °C | CCCCc1nc(Cl)c(C(N)=O)n1Cc1ccc2oc(-c3ccccc3-c3nnn[nH]3)c(Br)c2c1
62 | 55 to 56 °C | CC(Cc1ccc(F)c(F)c1)C(=O)O (stereo unspecified)
63 | 165 to 167 °C | COc1cc(SCc2sc(-c3ccc(C(F)(F)F)cc3)nc2C)c(C)cc1OCC(=O)O
64 | 147 to 148 °C | COc1ccc(N2CCN(c3c(C)c(C)c4c(c3C)C(c3ccc(OC(F)(F)F)cc3)C(C)(C)O4)CC2)cc1 (stereo unspecified)
65 | 52 to 54 °C | OCC(CO)c1ccccc1
66 | 90 to 92 °C | COC(=O)c1cc(CC#N)cc(CC#N)c1
67 | 280 to 290 °C | Nc1cc(-c2cccnc2)c[nH]c1=O
68 | 150 to 152 °C | ON=C(c1ccccc1)C(O)(c1ccccc1)c1ccccc1
69 | 112 to 114 °C | COc1ccc(NN=C(Sc2ccc(Cl)cc2)C(C)=O)cc1
70 | 94 to 95.5 °C | O=C(O)Cc1ccc(C(=O)C2CCCCC2)cc1
71 | 199 to 200 °C | O[C@@H]1[C@H](O)CS[C@H]1n1cnc2c(NCc3ccccc3Cl)nc(Cl)nc21
72 | 228 to 230 °C | CN(Cc1cccc2c1CN(C1CCC(=O)NC1=O)C2=O)C(=O)Nc1cc(F)cc(F)c1 (stereo unspecified)
73 | 98 to 99 °C | CCNC(=O)c1cccc(C(F)(F)F)c1
74 | 53 to 59 °C | O=[N+]([O-])c1ccc(Oc2ccc(C(F)(F)F)cc2Cl)nc1Cl
75 | 190 to 191 °C | Cn1cnc(-c2ccc(NC(=C3C(=O)Oc4ccccc43)c3ccc(C4(N)CC4)cc3)cc2)c1

Row | melting point | SMILES
76 | 64 to 66 °C | NCc1ccccc1C(F)(F)C(F)(F)c1ccc(F)cc1
77 | 212 to 213 °C | CC(C)Oc1ccc(CN/C=C2\C(=O)NC(=O)c3ccc(Br)cc32)cc1O
78 | 99 to 101 °C | C=CC[C@@H]1C[C@@H](COc2ccc(-c3ccc(C#N)cc3)cc2)NC1=O
79 | 247 to 249 °C | Cc1cccc2oc(=O)c(=O)[nH]c12
80 | 139 to 141 °C | O=C(Nc1ccccc1)c1cccc([N+](=O)[O-])c1C(=O)Nc1ccccc1
81 | 95 to 102 °C | CCC1(CO)COCOC1
82 | 122 to 123 °C | CN1CCc2cc([N+](=O)[O-])c(O)cc2C(c2cccc3c2OCC3)C1 (single isomer, unassigned; (+))
83 | 131 to 132 °C | COc1cccc(CC(=O)O)c1OCCCc1cn(-c2ncc(C(F)(F)F)cn2)nc1C(C)C
84 | 227 to 230 °C | Nc1cc(F)c(-n2ccc(=O)cc2)cc1N
85 | > 260 °C | Cc1ccc(C(NC(=O)[C@H](CCC(=O)O)NC(=O)c2cc3ccccc3[nH]2)c2ccc(C)cc2)cc1
86 | 249 to 250 °C | Cc1sc(C(=O)O)cc1NC(=O)Cc1ccccc1
87 | 71 to 75 °C | NCc1cccc(-c2ccc(Br)cc2)n1
88 | 61 to 75 °C | CO[C@@H]1[C@@H](OC)[C@H](C)O[C@@H](ON(Cc2ccc(-c3ncn(-c4ccc(OC(F)(F)F)cc4)n3)cc2)C(=O)CCC(=O)O)[C@@H]1OC
89 | 77 to 79 °C | CCCCC(Oc1ccc(C#N)cc1C=O)C(=O)OC (stereo unspecified)
90 | 108 to 111 °C | CCOC(=O)C(=CNc1ccc(F)cc1)C(=O)c1ccc(Cl)cc1Cl
91 | 180 °C | CS(=O)(=O)c1cccc(C(=O)O)c1O
92 | 109 to 110 °C | O=C(OCCCc1ccc(OCc2ccc(Cl)cc2)cc1)c1cccnc1
93 | 200 to 201 °C | O=C(Oc1ccccc1)N1CCC2(CC1)SC(c1ccc(F)cc1)c1ccccc12 (stereo unspecified)
94 | 155 to 158 °C | COc1cc(Oc2cccc3c2NC(=O)C3SC)cc(OC)c1OC (stereo unspecified)
95 | 103 to 106 °C | COc1ccc(C=O)c(-c2ccc(O[Si](C)(C)C(C)(C)C)cc2)c1O
96 | 262 to 263 °C | CCn1c(=O)c2c(-c3nc(C4CC4)no3)ncn2c2cccnc21
97 | 102 to 106 °C | CCOC(=O)C1=Cc2cc(C#N)ccc2OC1C(F)(F)F (stereo unspecified)
98 | 174 to 176 °C | CN=C(O)c1cc([N+](=O)[O-])cc([N+](=O)[O-])c1C(=O)O

Row | SMILES | melting point
99 | COCn1ncc2cc(Cl)c(NC(=O)c3cc(C(F)(F)F)nn3-c3ncccc3Cl)c(C(=O)NC(C)C)c21 | 180 to 182 °C
100 | CCc1ccc(CC2N=C(c3ccc(F)cc3)c3cc(Cl)ccc3N(C)C2=O)cc1CC (stereo unspecified) | 54 to 56 °C
101 | CC(C)(C)OC(=O)NC12CCC1CNC2 (stereo unspecified) | 113 to 116 °C
